Results taken from ChEMBL document CHEMBL2331389, “Structure-based discovery of cellular-active allosteric inhibitors of FAK” (Bioorg Med Chem Lett, 2013).

Experiments:
Focal adhesion kinase 1 [1] = biological target: T1, Focal adhesion kinase 1 (Homo sapiens, UniProt Q05397)
[2] = biological target: Mitogen-activated protein kinase 14 (Homo sapiens, UniProt Q16539); experiment: Inhibition of p38alpha (unknown origin)
[3] = biological target: Dual specificity mitogen-activated protein kinase kinase 1 (Homo sapiens, UniProt Q02750); experiment: Inhibition of MEK1 (unknown origin)
Aurora kinase B = Aurora kinase B (Homo sapiens, UniProt Q96GD4); experiment: Inhibition of aurora-B (unknown origin)
[4] = biological target: RAC-alpha serine/threonine-protein kinase (Homo sapiens, UniProt P31749); experiment: Inhibition of Akt1 (unknown origin)
[5] = biological target: Proto-oncogene tyrosine-protein kinase Src (Homo sapiens, UniProt P12931); experiment: Inhibition of Src (unknown origin)
[6] = biological target: Receptor tyrosine-protein kinase erbB-2 (Homo sapiens, UniProt P04626); experiment: Inhibition of HER2 (unknown origin)
[7] = biological target: Protein-tyrosine kinase 2-beta (Homo sapiens, UniProt Q14289); experiment: Inhibition of Pyk2 (unknown origin)
Focal adhesion kinase 1 [8] = biological target: T1, Focal adhesion kinase 1; remark: listed apart in the source

Proto-oncogene tyrosine-protein kinase Src, sequence (P12931 2-536 limits assumed): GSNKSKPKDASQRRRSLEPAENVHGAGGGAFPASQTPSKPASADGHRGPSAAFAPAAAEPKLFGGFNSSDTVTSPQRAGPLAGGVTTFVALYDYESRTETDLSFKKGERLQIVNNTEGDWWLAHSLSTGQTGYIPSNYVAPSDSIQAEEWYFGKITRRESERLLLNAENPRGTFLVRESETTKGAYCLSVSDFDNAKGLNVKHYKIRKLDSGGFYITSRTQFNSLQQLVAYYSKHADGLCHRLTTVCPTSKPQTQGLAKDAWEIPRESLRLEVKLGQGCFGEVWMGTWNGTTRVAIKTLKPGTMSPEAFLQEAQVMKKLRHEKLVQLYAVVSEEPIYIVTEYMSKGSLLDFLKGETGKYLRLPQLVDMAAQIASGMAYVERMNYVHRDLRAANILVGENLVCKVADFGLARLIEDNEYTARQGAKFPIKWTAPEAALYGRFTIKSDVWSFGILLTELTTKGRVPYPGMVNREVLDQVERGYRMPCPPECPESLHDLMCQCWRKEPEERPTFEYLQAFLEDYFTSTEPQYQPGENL
RAC-alpha serine/threonine-protein kinase, sequence (P31749 whole entry): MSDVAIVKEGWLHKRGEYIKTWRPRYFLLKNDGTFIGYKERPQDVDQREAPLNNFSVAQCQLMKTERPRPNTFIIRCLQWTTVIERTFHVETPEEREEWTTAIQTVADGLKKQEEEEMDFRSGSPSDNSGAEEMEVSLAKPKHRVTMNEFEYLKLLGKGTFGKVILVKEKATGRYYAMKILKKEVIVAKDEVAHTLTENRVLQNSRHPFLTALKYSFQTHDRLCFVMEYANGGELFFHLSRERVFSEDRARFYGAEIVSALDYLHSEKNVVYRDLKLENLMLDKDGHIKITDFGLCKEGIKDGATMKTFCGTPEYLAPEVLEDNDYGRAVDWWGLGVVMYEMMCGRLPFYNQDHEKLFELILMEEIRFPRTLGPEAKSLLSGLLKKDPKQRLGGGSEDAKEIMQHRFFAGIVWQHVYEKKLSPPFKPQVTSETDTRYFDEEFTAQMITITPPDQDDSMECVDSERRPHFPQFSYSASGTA
T1 sequence (Q05397 whole entry): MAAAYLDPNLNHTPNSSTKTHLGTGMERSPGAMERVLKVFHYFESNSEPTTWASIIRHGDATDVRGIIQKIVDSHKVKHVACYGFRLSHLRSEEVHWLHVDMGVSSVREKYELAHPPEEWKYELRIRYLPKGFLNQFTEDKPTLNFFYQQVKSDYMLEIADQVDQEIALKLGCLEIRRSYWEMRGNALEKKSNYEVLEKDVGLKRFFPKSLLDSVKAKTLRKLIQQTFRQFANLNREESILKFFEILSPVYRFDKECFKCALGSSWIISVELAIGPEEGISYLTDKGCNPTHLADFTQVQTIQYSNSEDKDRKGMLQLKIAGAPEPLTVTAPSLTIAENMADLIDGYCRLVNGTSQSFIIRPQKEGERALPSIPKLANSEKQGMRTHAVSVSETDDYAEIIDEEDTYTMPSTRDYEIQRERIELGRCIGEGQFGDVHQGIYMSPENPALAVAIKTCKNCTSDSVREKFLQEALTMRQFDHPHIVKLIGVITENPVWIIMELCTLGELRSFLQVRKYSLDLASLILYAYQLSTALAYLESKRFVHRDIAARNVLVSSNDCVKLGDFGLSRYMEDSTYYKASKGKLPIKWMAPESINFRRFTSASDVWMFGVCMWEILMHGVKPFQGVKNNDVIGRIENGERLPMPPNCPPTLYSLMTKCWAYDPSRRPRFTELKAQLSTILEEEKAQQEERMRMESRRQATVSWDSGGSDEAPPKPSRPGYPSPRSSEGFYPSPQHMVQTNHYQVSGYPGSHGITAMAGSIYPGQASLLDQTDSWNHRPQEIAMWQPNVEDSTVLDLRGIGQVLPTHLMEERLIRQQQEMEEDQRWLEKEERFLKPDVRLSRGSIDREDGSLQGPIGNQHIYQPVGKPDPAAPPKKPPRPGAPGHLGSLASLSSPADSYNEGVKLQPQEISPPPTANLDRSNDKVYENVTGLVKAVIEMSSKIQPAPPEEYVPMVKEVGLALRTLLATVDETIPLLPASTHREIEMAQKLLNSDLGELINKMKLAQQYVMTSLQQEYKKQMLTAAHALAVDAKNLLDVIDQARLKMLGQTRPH
Dual specificity mitogen-activated protein kinase kinase 1, sequence (Q02750 whole entry): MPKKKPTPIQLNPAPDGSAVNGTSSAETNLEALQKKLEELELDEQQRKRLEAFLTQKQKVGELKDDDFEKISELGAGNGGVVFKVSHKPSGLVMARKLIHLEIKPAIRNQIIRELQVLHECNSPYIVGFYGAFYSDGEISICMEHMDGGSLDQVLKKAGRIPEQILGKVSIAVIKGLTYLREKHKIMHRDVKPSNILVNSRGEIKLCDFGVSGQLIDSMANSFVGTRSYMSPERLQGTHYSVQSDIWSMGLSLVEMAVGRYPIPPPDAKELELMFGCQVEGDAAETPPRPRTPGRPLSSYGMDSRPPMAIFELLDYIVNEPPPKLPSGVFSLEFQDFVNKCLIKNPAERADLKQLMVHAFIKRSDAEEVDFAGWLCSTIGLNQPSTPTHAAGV
Receptor tyrosine-protein kinase erbB-2, sequence (P04626 whole entry): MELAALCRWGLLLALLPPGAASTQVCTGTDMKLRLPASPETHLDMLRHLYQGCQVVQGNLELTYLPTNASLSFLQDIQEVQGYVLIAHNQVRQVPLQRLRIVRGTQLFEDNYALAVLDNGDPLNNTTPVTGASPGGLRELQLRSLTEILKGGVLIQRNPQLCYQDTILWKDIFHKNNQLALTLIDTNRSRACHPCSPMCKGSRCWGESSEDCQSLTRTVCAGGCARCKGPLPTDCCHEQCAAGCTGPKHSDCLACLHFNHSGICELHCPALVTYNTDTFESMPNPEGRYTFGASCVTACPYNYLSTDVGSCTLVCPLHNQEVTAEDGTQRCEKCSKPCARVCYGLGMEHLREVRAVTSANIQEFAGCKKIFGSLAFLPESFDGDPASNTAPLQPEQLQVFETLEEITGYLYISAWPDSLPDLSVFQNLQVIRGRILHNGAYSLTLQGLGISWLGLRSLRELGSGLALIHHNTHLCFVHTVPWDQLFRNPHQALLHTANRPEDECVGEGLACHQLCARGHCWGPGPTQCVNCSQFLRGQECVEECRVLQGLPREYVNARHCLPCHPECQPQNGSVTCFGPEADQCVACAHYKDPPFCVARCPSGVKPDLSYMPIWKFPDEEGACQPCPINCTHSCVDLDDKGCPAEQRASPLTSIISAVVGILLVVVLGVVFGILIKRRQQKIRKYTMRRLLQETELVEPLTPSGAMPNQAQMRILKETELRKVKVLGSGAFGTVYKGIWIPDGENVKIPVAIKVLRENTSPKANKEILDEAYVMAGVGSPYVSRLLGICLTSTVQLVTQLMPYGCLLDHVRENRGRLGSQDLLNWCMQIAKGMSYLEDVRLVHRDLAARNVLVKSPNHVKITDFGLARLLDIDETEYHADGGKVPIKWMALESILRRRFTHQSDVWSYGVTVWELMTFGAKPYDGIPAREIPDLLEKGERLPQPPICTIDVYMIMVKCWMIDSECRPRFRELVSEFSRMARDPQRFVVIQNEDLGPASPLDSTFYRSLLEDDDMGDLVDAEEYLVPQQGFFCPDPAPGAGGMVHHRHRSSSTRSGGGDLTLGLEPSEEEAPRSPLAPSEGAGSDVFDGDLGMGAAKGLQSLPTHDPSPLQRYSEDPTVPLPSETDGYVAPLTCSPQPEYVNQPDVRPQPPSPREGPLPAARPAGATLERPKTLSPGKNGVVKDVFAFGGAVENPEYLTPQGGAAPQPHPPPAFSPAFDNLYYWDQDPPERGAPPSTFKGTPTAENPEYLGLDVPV
Mitogen-activated protein kinase 14, sequence (Q16539 whole entry): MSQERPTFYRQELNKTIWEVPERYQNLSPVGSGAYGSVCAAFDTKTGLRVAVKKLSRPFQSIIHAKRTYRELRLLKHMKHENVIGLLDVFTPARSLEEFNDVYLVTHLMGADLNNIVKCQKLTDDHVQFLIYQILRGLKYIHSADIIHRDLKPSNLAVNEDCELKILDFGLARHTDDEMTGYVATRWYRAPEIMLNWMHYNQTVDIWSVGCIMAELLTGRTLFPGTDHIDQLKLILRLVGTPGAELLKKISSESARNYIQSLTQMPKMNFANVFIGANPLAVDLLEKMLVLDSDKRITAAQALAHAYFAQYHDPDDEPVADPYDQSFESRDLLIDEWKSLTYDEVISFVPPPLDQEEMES
Aurora kinase B, sequence (Q96GD4 whole entry): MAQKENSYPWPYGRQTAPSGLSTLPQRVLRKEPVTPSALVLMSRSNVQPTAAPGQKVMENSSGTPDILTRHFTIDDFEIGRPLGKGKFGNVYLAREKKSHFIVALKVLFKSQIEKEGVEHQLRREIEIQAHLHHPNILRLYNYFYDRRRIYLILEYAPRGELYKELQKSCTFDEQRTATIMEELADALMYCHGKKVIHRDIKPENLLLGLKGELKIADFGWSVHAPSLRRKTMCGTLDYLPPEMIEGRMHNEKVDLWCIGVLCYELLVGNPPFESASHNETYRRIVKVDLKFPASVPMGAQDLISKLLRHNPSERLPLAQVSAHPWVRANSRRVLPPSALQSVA

| Structure (SMILES) | IC50 (Focal adhesion kinase 1 [1]) [µM] | IC50 [2] [µM] | IC50 [3] [µM] | IC50 (Aurora kinase B) [µM] | IC50 [4] [µM] | IC50 [5] [µM] | IC50 [6] [µM] | IC50 [7] [µM] | IC50 (Focal adhesion kinase 1 [8]) [µM] |
| --- | --- | --- | --- | --- | --- | --- | --- | --- | --- |
| CCc1ccc(-c2ccc3c(c2)-c2nn(C)cc2S(=O)(=O)N3C)cc1 | > 30 |  |  |  |  |  |  |  |  |
| CCc1ccc(-c2ccc3c(c2)-c2n[nH]cc2S(=O)(=O)N3C)cc1 |  | > 10 | 8.6 | 5.1 | > 10 | > 10 | > 10 |  |  |
| CCc1ccc(-c2ccc3c(c2)-c2c(cnn2CC)S(=O)(=O)N3C)cc1 | 2.1 |  |  |  |  |  |  |  |  |
| CN1c2ccc(C(=O)Nc3ccc(F)cc3)cc2-c2c(cnn2C)S1(=O)=O | > 30 |  |  |  |  |  |  |  |  |
| CCc1ccc(-c2ccc3c(c2)-c2c(cnn2C)S(=O)(=O)N3C)cc1 | 0.077 | > 10 | > 10 | > 10 | > 10 | > 10 | > 10 | > 10 | 0.42 |
| CN1c2ccc(NCc3ccc(C(C)(C)C)cc3)cc2-c2c(cnn2C)S1(=O)=O |  | > 10 | > 10 | > 10 | > 10 | > 10 | > 10 | > 10 |  |
